Patent US20160152607A1, “MALEIC ACID DERIVATIVE, PRODUCTION METHOD FOR SAME, AND ANTI-CANCER COMPOSITION COMPRISING SAME” (Medicinal Bioconvergence Research Center, priority 2013, published 2016)

What was measured:
Type in all cases: cell-based
H460 cells = assay: MTT cytotoxicity on lung cancer cells (H460); conditions: medium with 0.5% serum
Experimental: H460 cells were dispensed in medium containing 0.5% serum at 1×10^4 per well, and were treated with the compounds. MTT solution (5 mg/mL) was diluted 10-fold, and dispensed at 10 μl per well, followed by culturing for 30 minutes. The precipitate was dissolved in 100 μl of DMSO, and the absorbance was measured using a microplate reader (Sunrise, TECAN) at a wavelength of […].

[1] = Cytotoxicity on normal cell line NIH 3T3 (cell counting kit-8, WST-8); conditions: mouse, NIH 3T3 cells (embryonic fibroblast cell line); NIH 3T3 normal cell line
Experimental: (§1) For the normal cell lines, five cell lines, VERO (African green monkey kidney cell line), HFL-1 (human embryonic lung cell line), L929 (NCTC clone 929, mouse fibroblast cell line), NIH 3T3 (mouse embryonic fibroblast cell line), and CHO-K1 (Chinese hamster overy cell line) were used.
(§2) For the cytotoxicity, all the cells were seeded at 1×10^4, and for a generalized test for investigating cell viability, the CC50 value, which is the concentration of a compound killing 50% of cells, was measured by cell counting kit-8 assay using tetrazolium salt named WST-8 displaying a pale yellow color.

[2] = Cytotoxicity on normal cell line CHO-K1 (cell counting kit-8, WST-8); conditions: Chinese hamster, CHO-K1 cells (ovary cell line)
Experimental: as §1, §2

[3] = Cytotoxicity on normal cell line HFL-1 (cell counting kit-8, WST-8); conditions: human, HFL-1 cells (embryonic lung cell line); HFL-1 normal cell line; read-out: Cytotoxicity CC50 (μM), FL-1
Experimental: as §1, §2

[4] = Cytotoxicity on normal cell line VERO (cell counting kit-8, WST-8); conditions: African green monkey, VERO cells (kidney cell line), read-out: Cytotoxicity CC50 (μM), ERO
Experimental: as §1, §2

[5] = Cytotoxicity on normal cell line L929 (cell counting kit-8, WST-8); conditions: mouse, L929 cells (NCTC clone 929, fibroblast cell line)
Experimental: as §1, §2

| Compound | Inhibition of proliferation of H460 cells (MTT, FIG. 1) (H460 cells) | CC50 [1] [µM] | CC50 [2] [µM] | CC50 [3] [µM] | CC50 [4] [µM] | CC50 [5] [µM] |
| --- | --- | --- | --- | --- | --- | --- |
| Cc1ccnc(NC(=O)/C=C\C(=O)N2CCCCC2)c1 [Example 1-14, (Z)—N-(4-methylpyridin-2-yl)-4-oxo-4-(piperidin-1-yl)but-2-enamide] | significantly inhibited the proliferation of H460 cells in a dose-dependent manner |  |  |  |  |  |
| Cc1ccnc(NC(=O)/C=C\C(=O)N2CCOCC2)c1 [Example 1-20, (Z)—N-(4-methylpyridin-2-yl)-4-morpholino-4-oxobut-2-enamide] | significantly inhibited the proliferation of H460 cells in a dose-dependent manner | > 100 | > 100 | 100 | 100 | 100 |
